Experimental data as given in patent US7395112B2, “Method and apparatus for treating tumors using low strength electric fields” (priority 2002, dated 2008).

Legend:
B16-F10.9 melanoma = assay: LEFCT-EC in mice bearing subcutaneous B16-F10.9 melanoma; format: in vivo, C57BL/6 mice; details: for Tumor size (mean ± standard error): 7 days after treatment
Procedure: Animals: C57BL/6 male mice were obtained from the breeding colony of Tel-Aviv University, Israel. Mice were used at 8-12 weeks of age. Animal care and experimentation was carried out in accordance with Tel-Aviv University guidelines.
Melanoma tumor cell line: The highly metastatic, poorly immunogenic B16-F10.9 (F10.9) subclone of the B16 melanoma cell line was used to generate melanoma tumors in mice (Eisenbach L. et al., 1984. Int J Cancer 34:567). Cells were maintained in DMEM supplemented with 100 U/ml penicillin, 100 μg/ml streptomycin, 4 mM glutamine, 1 mM sodium pyruvate, 1% non-essential amino acids and 10% heat-inactivated fetal calf serum (FCS); and were cultured at 37° C. in a humidified incubator in an atmosphere of 7% carbon dioxide and 93% air.
Tumor generation protocol: F10.9 tumors were induced in C57BL/6 mice by subcutaneous injection of 2×10^5 F10.9 cells. Mice were subjected to experimental treatments once tumors reached 5 mm in diameter (about 60-70 mm^3). Chemotherapeutic drugs: The following chemotherapeutic drugs used were: cis-platinum (II) diamminedichloride (cisplatin; #P-4394, Sigma, Israel), dissolved in PBS for injections; Taxol (Mead Johnson Oncology Products, A Bristol-Myers Squibb, USA), obtained as a sterile nonpyrogenic solution containing 6 mg/ml paclitaxel, 527 mg/ml of purified Cremophor EL (polyoxyethylated castor oil) and 5-FU (Abic, Israel).
Low-strength electric field enhanced cancer therapy protocol: Mice were subjected to a single treatment of LEFCT-EC, once tumors reached 5 mm in diameter (11-17 days following tumor cell inoculation). Volumes of up to 100 μl of chemotherapeutic agents were injected into tumor loci, and exposures to electric fields were carried out 3-4 min following intratumoral injection of chemotherapeutic agents. To expose tumors to electric fields, stainless steel electrode needles (Karlsbader insect pins No 0. BioQuip Products, USA) soldered at their brassy ends with thin isolated copper wires were used. Electrodes were inserted to a depth of about 7 mm percutaneously into and in the immediate vicinity of the tumor; one cathode needle in the center of the tumor and three peripheral anodes, at a distance of about 5 mm from the cathode. The needles were connected to an electric pulse generator (Grass S48 Stimulator, USA). The field strength applied was about 40 V/cm; the repetition frequency, 500 Hz; and the pulse width, 180 μs. All mice were anesthetized prior to LEF treatment.
Statistical analysis: Statistical analysis of survival times (Kaplan-Meir test), survival comparisons between groups (Mantel-Cox test) and tumor volume differences between groups (Kolmogorov-Smirnov test) were performed using StatSoft Statistica statistical software. The 10-15% mortality rate in the 5 days following LEF or LEF-chemotherapy was considered as treatment-caused, therefore such cases of mortality were excluded.
Tumor volume determination: performed as described above in Example 1 of the Examples section.

[1] = system: DA3 mammary adenocarcinoma; assay: LEFCT-EC in mice bearing DA3 mammary adenocarcinoma; format: in vivo, BALB/c mice
Procedure: Animals: BALB/c female mice between the ages of 8 to 12 weeks obtained from the breeding colony of Tel-Aviv University, Israel were used in vivo tumor therapy experiments. Animal care and experimentation was carried out in accordance with Tel-Aviv University guidelines.
Tumor cell line: The highly metastatic, poorly immunogenic mammary adenocarcinoma cell line DA3 (Lopez D M. et al., 1981. J Natl Cancer Inst. 66:191) was used to generate mammary carcinoma tumors in mice. Cells were grown in DMEM supplemented with 100 U/ml penicillin, 100 μg/ml streptomycin, 4 mM glutamine, 1 mM sodium pyruvate, 1% non-essential amino acids and 10% heat-inactivated fetal calf serum (FCS), and cultured at 37° C. in a humidified incubator in an atmosphere of 7% carbon dioxide and 93% air. Tumors of this cell line grown to 1 cm in diameter produce metastatic cells, mainly in the lungs.
Reagents: Taxol (Mead Johnson Oncology Products, A Bristol-Myers Squibb, USA), obtained as a sterile nonpyrogenic solution containing 6 mg/ml paclitaxel, 527 mg/ml of purified Cremophor EL (polyoxyethylated castor oil) and 49.7% (v/v) dehydrated ethanol; and bleomycin (MegaPharm, Israel) were the anti cancer drugs used.
Low-strength electric field enhanced cancer chemotherapy protocol: Mice were subjected to a single treatment of LEF-chemotherapy, once primary tumors reached 5 mm in diameter (about 60-70 mm^3) (11-17 days following subcutaneous tumor cell inoculation). Up to 100 μl of chemotherapeutic agents was injected into the tumor loci. The exposure to electric field was carried out as described above in Example 2 of the Examples section.
Effect of LEFCT-EC using bleomycin or taxol on the survival of DA3 mammary adenocarcinoma bearing nice: BALB/c mice bearing DA3 mammary adenocarcinoma were treated by LEF-chemotherapy with intratumoral taxol (20 mg/kg) (FIG. 19) or bleomycin (30 U/kg) (FIG. 20) administration and their survival rate was compared with that of mice treated only with LEF or chemotherapy.

Substance: bleomycin
- Tumor size (mean ± standard error) (B16-F10.9 melanoma; LEF-CT (drug + LEF), cisplatin 4 mg/kg, bleomycin 8 U/kg, 5-FU 150 mg/kg, taxol 20 mg/kg): 573 ± 138 mm^3
- mean survival time (MST) (B16-F10.9 melanoma; LEF-chemotherapy: intratumoral drug + LEF about 40 V/cm 12 min, 120 days (cisplatin) or 180 days (taxol, bleomycin) after inoculation): 48 days
- cure rate / animals alive and free of visible tumor (B16-F10.9 melanoma; LEF-chemotherapy, 180 days after tumor inoculation): 8.2%
- mean survival time (MST) (B16-F10.9 melanoma; chemotherapy alone, intratumoral, no LEF): 34.3 days
- Tumor size (mean ± standard error) (B16-F10.9 melanoma; intratumoral drug injection alone, same doses): 2456 ± 220 mm^3
- LEFCT-EC treated mice that died two months and later after treatment with pulmonary metastatic foci, free of primary tumor (B16-F10.9 melanoma; pooled statement for cisplatin, taxol or bleomycin): About 10%
- MST (B16-F10.9 melanoma; route comparison: bleomycin 8 U/kg intraperitoneally + LEF): 34.6 days
- MST (B16-F10.9 melanoma; route comparison: bleomycin 8 U/kg intratumorally + LEF): 46.6 days
- animals alive (B16-F10.9 melanoma; route comparison: bleomycin 8 U/kg intratumorally + LEF, 180 days after tumor inoculation): 5%
- survival time, Mean ([1]; LEF-chemotherapy with the drug): 85.3
- survival time, Median ([1]; LEF-chemotherapy with the drug): 64.5
- cure rate ([1]; LEF-chemotherapy, intratumoral taxol 20 mg/kg or bleomycin 30 U/kg, 180 days after tumor inoculation): 30%
- survival time, Mean ([1]; drug alone, intratumoral): 40.2
- survival time, Median ([1]; drug alone, intratumoral): 37.5
